Data from patent US5137811A, “Method for diagnosing periodontal diseases with a substrate specific for aminopeptidase activity of periodontopathic bacteria” (Sunstar Kabushiki Kaisha, priority 1986, dated 1992).
Where a SMILES comes first, the peptide text is derived from it. The star is where a group is joined. pNA = O=[N+]([O-])c1ccc(N*)cc1; βNA = c1ccc2cc(N*)ccc2c1

Columns and labels:
[1] = test system: periodontopathic bacteria specific aminopeptidase activity; experiment: Hydrolytic activity of saliva supernatant (Experiment 7); format: biochemical; conditions: 37° C. for 4 hours, Table 7
Description: (§1) Specimens of gingival crevicular fluid were collected with paper points from five subjects who were considered to be healthy from their clinical state, six subjects with gingivitis and six subjects with periodontitis. Each specimen was dispersed in Ringer's solution (1.5 ml), and the relative amount of spirochete to total bacteria: [formula] was determined with a phase contrast microscope. Further, the Ringer's solution (0.3 ml) was tested for hydrolytic activity using the substrate solution prepared in the same manner as described in Experiment 1. As substrates, there were used compounds of the formula [1], i.e., N-benzoylvalyl-glycyl-arginine-β-naphthylamide (BzVGR) and N-carbobenzoxy-valyl-glycyl-arginine-β-naphthylamide (CxVGR) were used.
(§2) A saliva mixture was collected from a group consisting of ten healthy subjects and centrifuged to obtain a supernatant. Likewise, centrifuged supernatants were obtained from a group of ten subjects with adult periodontitis and a group of four localized juvenile periodontitis. The supernatant was used as a specimen and its hydrolytic activity was determined according to the same manner as described in Experiment 4 except that the reaction was carried out at 37° C. for 4 hours. As the substrates, there were used N-carbobenzoxy-valyl-glycyl-arginine-p-nitrophenol (CxVGR-pNP), N-carbobenzoxy-valyl-glycylarginine-4-methoxy-2-naphthylamide (CxVGR-4NA) and N-carbobenzoxy-valyl-glycyl-arginine-β-naphthylamide (CxVGR-βNA). Color was developed by using lN sodium hydroxide for CxVGR-pNP and Fast Blue BB for CxVGR-4NA and CxVGR-βNA.

[2] = test system: periodontopathic bacteria specific aminopeptidase activity; experiment: Hydrolytic activity of saliva supernatant, substrates alone or in combination (Experiment 9); format: biochemical; conditions: 37° C. for 4 hours, Table 9
Description: as §2
According to the same manner as described in Experiment 7, hydrolytic activity was tested by using N-carbobenzoxy-valyl-glycyl-arginine-β-naphthylamide (CxVGR-βNA), N-benzoyl-arginyl-glycyl-phenylalanyl-proline-β-naphthylamide (BzRGFP-βNA), N-carbobenzoxy-valyl-glycylarginine-p-nitrophenol (CxVGR-pNP) and N-benzoyl-arginylglycyl-phenylalanyl-proline-p-nitrophenol (BzRGFP-pNP) alone or in combination as the substrates.

Treponema denticola [3] = experiment: Hydrolytic activity of cell suspension, substrates alone or in combination (Experiment 3); format: cell-based; conditions: four strains, Table 3
Description: (§3) The strains of Treponema were anaerobically cultivated using TYGVS media at 37° C. for 7 days, while other bacterial strains were cultivated using brain heart infusion broth at 37° C. for 48 to 72 hours. Each culture was diluted to obtain a bacterial cell suspension, the absorption at 660 nm of which was 1.0.
(§4) Substrate compounds for aminopeptidase enzyme having various color developing groups derived from β-naphthylamine were dissolved in 0.1M Tris-HCl buffer (pH 7.0) at the concentration of 0.2 mM to obtain substrate solutions.
(§5) To the substrate solution (1.5 ml) was added the above cell suspension (0.3 ml) and reacted at 37° C. for 60 minutes. After completion of the reaction, a coloring reagent [prepared by dissolving diazonium salt of Garnet GBC in 1M acetate buffer (containing 10% Tween 20, pH: 4.2) at the concentration of 0.5 mg/ml] was added and, after 15 minutes, the absorption at 525 nm was determined with a spectrophotometer.
(§6) On the basis of the average amount of released β-naphthylamine in each strain, the hydrolytic activity was expressed as follows: […]
(§7) According to the same manner as described in Experiment 1, periodontopathic bacteria specific aminopeptidase activity was tested by using four strains of Treponema denticola, five strains of B. gingivalis, four strains of Actinobacillus actinomycetemcomitans, two strains of Actinomyces israelli and three strains of Fusobacterium nucleatum. Abbreviations in Table 3 are the same as those in Tables 1 and 2. Hydrolytic activity "+++" means "40≤release amount<80 nmol/ml" and "++++" means "release amount≥80 nmol/ml".

[4] = test system: Actinobacillus actinomycetemcomitans; experiment: as above; format: cell-based; conditions: four strains, Table 3
Description: as §3, §4, §5, §6, §7

Actinomyces israelli [5] = experiment: as above; format: cell-based; conditions: two strains, Table 3
Description: as §3, §4, §5, §6, §7

Fusobacterium nucleatum [6] = experiment: as above; format: cell-based; conditions: three strains, Table 3
Description: as §3, §4, §5, §6, §7

B. gingivalis [7] = experiment: as above; format: cell-based; conditions: five strains, Table 3
Description: as §3, §4, §5, §6, §7

Treponema denticola [8] = experiment: Hydrolytic activity of oral anaerobe cell suspension on aminopeptidase substrates (Experiment 1); format: cell-based; conditions: four strains, substrate 0.2 mM, pH 7.0, 37° C., 60 minutes, Table 1
Description: (§8) Oral anaerobes, i.e., four strains of Treponema denticola, five strains of B. gingivalis, four strains of Actinobacillus actinomycetemcomitans, four strains of Capnocytophaga sp. and three strains of Fusobacterium nucleatum were tested for hydrolytic activity to the substrate of aminopeptidase enzyme as follows.
as §3, §4, §5, §6

Bacteroides gingivalis = experiment: as above; format: cell-based; conditions: five strains, substrate 0.2 mM, pH 7.0, 37° C., 60 minutes, Table 1
Description: as §8, §3, §4, §5, §6

[9] = test system: Actinobacillus actinomycetemcomitans; experiment: as above; format: cell-based; conditions: four strains, substrate 0.2 mM, pH 7.0, 37° C., 60 minutes, Table 1
Description: as §8, §3, §4, §5, §6

Capnocytophaga sp. = experiment: as above; format: cell-based; conditions: four strains, substrate 0.2 mM, pH 7.0, 37° C., 60 minutes, Table 1
Description: as §8, §3, §4, §5, §6

Fusobacterium nucleatum [10] = experiment: as above; format: cell-based; conditions: three strains, substrate 0.2 mM, pH 7.0, 37° C., 60 minutes, Table 1
Description: as §8, §3, §4, §5, §6

[11] = test system: periodontopathic bacteria specific aminopeptidase activity; experiment: Hydrolytic activity of saliva supernatant (Experiment 8); format: biochemical; conditions: 37° C. for 4 hours, Table 8
Description: as §2
According to the same manner as described in Experiment 7, hydrolytic activity was tested by using lysylproline-p-nitroanilide (KP-pNA), lysyl-proline-4-methoxy-2-naphthylamide (KP-4NA) and lysyl-proline-β-naphthylamide (KP-βNA)as the substrates. Color was developed by using lN sodium hydroxide for KP-pNA and Fast Blue BB for KP-4-NA and KP-βNA.

[12] = test system: periodontopathic bacteria specific aminopeptidase activity; experiment: Hydrolytic activity of gingival crevicular fluid specimens, visually evaluated (Experiment 5); format: biochemical; design: key: -: orange; +: dark orange; ++: brown; +++: dark brown
Description: as §4, §5, §1
In table 4, hydrolytic activity was visually evaluated and expressed as follows: […]
According to the same manner as described in Experiment 4, hydrolytic activity was tested by using the compounds of the formula [2], i.e., lysyl-proline-β-naphthylamide (KP) and N-carbobenzoxy-prolyl-alanyl-glycylproline-β-naphthylamide (CxPAGP) as the substrates.

Treponema denticola [13] = experiment: Hydrolytic activity of cell suspension on aminopeptidase substrates (Experiment 2); format: cell-based; conditions: four strains, Table 2
Description: as §3, §4, §5, §6
(§9) According to the same manner as described in Experiment 1, periodontopathic bacteria specific aminopeptidase activity was tested by using four strains of Treponema denticola, five strains of B. gingivalis, three strains of B. intermedius, two strains of B. melaninogenicus, two strains of Actinomyces israelli, four strains of Actinobacillus actinomycetemcomitans and three strains of Fusobacterium nucleatum. Abbreviations used in Table 2 mean the following substrate compounds.

B. melaninogenicus = experiment: as above; format: cell-based; conditions: two strains, Table 2
Description: as §3, §4, §5, §6, §9

[14] = test system: Actinobacillus actinomycetemcomitans; experiment: as above; format: cell-based; conditions: four strains, Table 2
Description: as §3, §4, §5, §6, §9

Actinomyces israelli [15] = experiment: as above; format: cell-based; conditions: two strains, Table 2
Description: as §3, §4, §5, §6, §9

B. intermedius = experiment: as above; format: cell-based; conditions: three strains, Table 2
Description: as §3, §4, §5, §6, §9

B. corporis = experiment: as above; format: cell-based; conditions: Table 2
Description: as §3, §4, §5, §6, §9

Fusobacterium nucleatum [16] = experiment: as above; format: cell-based; conditions: three strains, Table 2
Description: as §3, §4, §5, §6, §9

B. denticola = experiment: as above; format: cell-based; conditions: Table 2
Description: as §3, §4, §5, §6, §9

B. gingivalis [17] = experiment: as above; format: cell-based; conditions: five strains, Table 2
Description: as §3, §4, §5, §6, §9

[18] = Localized juvenile periodontitis subjects

COc1cc(NC(=O)[C@H](CCCNC(=N)N)NC(=O)CNC(=O)[C@@H](NC(=O)OCc2ccccc2)C(C)C)cc2ccccc12 [CxVGR-4NA, N-carbobenzoxy-valyl-glycylarginine-4-methoxy-2-naphthylamide]
hydrolytic activity ([1]; Adult Periodontitis subjects): 34.6 ± 8.9 nmol/mL | hydrolytic activity ([1]; Healthy subjects): 18.0 ± 10.8 nmol/mL | hydrolytic activity [1, 18]: 32.3 ± 8.9 nmol/mL

N-benzoyl-arginylglycyl-phenylalanyl-proline-p-nitrophenol [BzRGFP-pNP]
hydrolytic activity ([2]; Adult Periodontitis subjects): 25.6 ± 8.4 nmol/mL | hydrolytic activity ([2]; Healthy subjects): 13.3 ± 4.9 nmol/mL | hydrolytic activity [2, 18]: 21.8 ± 7.8 nmol/mL

N-carbobenzoxy-valyl-glycyl-arginine-p-nitrophenol [CxVGR-pNP]
hydrolytic activity ([2]; Adult Periodontitis subjects): 33.5 ± 11.5 nmol/mL | hydrolytic activity ([2]; Healthy subjects): 14.0 ± 7.9 nmol/mL | hydrolytic activity [2, 18]: 28.8 ± 9.1 nmol/mL | hydrolytic activity ([1]; Adult Periodontitis subjects): 34.0 ± 9.7 nmol/mL | hydrolytic activity ([1]; Healthy subjects): 17.0 ± 11.4 nmol/mL | hydrolytic activity [1, 18]: 32.5 ± 9.6 nmol/mL

N=C(N)NCCC[C@H](NC(=O)CN)C(=O)Nc1ccc2ccccc2c1 [GR, glycyl-arginine-β-naphthylamide] (H-Gly-Arg-βNA)
hydrolytic activity (release amount) (Treponema denticola [3]): + (10 ≤release amount<20 nmol/ml) | hydrolytic activity (release amount) [4]: - (release amount<5 nmol/ml) | hydrolytic activity (release amount) (Actinomyces israelli [5]): - (release amount<5 nmol/ml) | hydrolytic activity (release amount) (Fusobacterium nucleatum [6]): - (release amount<5 nmol/ml) | hydrolytic activity (release amount) (B. gingivalis [7]): ++ (20 ≤release amount<40 nmol/ml) | hydrolytic activity (average amount of released β-naphthylamine) (Treponema denticola [8]): + (10 ≤release amount<20 nmol/ml) | hydrolytic activity (average amount of released β-naphthylamine) (Bacteroides gingivalis): ++ (20 ≤release amount<40 nmol/ml) | hydrolytic activity (average amount of released β-naphthylamine) [9]: - (release amount<5 nmol/ml) | hydrolytic activity (average amount of released β-naphthylamine) (Capnocytophaga sp.): ± (5 ≤release amount<10 nmol/ml) | hydrolytic activity (average amount of released β-naphthylamine) (Fusobacterium nucleatum [10]): - (release amount<5 nmol/ml)

NCCCC[C@H](N)C(=O)N1CCC[C@H]1C(=O)Nc1ccc2ccccc2c1 [KP, lysyl-proline-β-naphthylamide] (H-Lys-Pro-βNA)
hydrolytic activity ([11]; Adult Periodontitis subjects): 36.2 ± 9.9 nmol/mL | hydrolytic activity ([11]; Healthy subjects): 16.1 ± 10.3 nmol/mL | hydrolytic activity [11, 18]: 33.4 ± 10.0 nmol/mL | hydrolytic activity, visually evaluated ([12]; Gingivitis subject 1 (spirochete 7.3 %)): + | hydrolytic activity, visually evaluated ([12]; Gingivitis subject 2 (spirochete 16.7 %)): + | hydrolytic activity, visually evaluated ([12]; Gingivitis subject 3 (spirochete 20.5 %)): ++ | hydrolytic activity, visually evaluated ([12]; Gingivitis subject 4 (spirochete 6.8 %)): - | hydrolytic activity, visually evaluated ([12]; Gingivitis subject 5 (spirochete 7.3 %)): - | hydrolytic activity, visually evaluated ([12]; Gingivitis subject 6 (spirochete 14.4 %)): + | hydrolytic activity, visually evaluated ([12]; Healthy subject 1 (spirochete 0.1 %)): - | hydrolytic activity, visually evaluated ([12]; Healthy subject 2 (spirochete 2.5 %)): + | hydrolytic activity, visually evaluated ([12]; Healthy subject 3 (spirochete 1.1 %)): - | hydrolytic activity, visually evaluated ([12]; Healthy subject 4 (spirochete 0.6 %)): - | hydrolytic activity, visually evaluated ([12]; Healthy subject 5 (spirochete 1.3 %)): - | hydrolytic activity, visually evaluated ([12]; Periodontitis subject 1 (spirochete 45.2 %)): +++ | hydrolytic activity, visually evaluated ([12]; Periodontitis subject 2 (spirochete 30.3 %)): +++ | hydrolytic activity, visually evaluated ([12]; Periodontitis subject 3 (spirochete 34.6 %)): +++ | hydrolytic activity, visually evaluated ([12]; Periodontitis subject 4 (spirochete 21.2 %)): +++ | hydrolytic activity, visually evaluated ([12]; Periodontitis subject 5 (spirochete 40.3 %)): +++ | hydrolytic activity, visually evaluated ([12]; Periodontitis subject 6 (spirochete 35.1 %)): +++ | hydrolytic activity (average amount of released β-naphthylamine) (Treponema denticola [13]): ++ (20 ≤release amount<40 nmol/ml) | hydrolytic activity (average amount of released β-naphthylamine) (B. melaninogenicus): ++ (20 ≤release amount<40 nmol/ml) | hydrolytic activity (average amount of released β-naphthylamine) [14]: - (release amount<5 nmol/ml) | hydrolytic activity (average amount of released β-naphthylamine) (Actinomyces israelli [15]): - (release amount<5 nmol/ml) | hydrolytic activity (average amount of released β-naphthylamine) (B. intermedius): ++ (20 ≤release amount<40 nmol/ml) | hydrolytic activity (average amount of released β-naphthylamine) (B. corporis): ++ (20 ≤release amount<40 nmol/ml) | hydrolytic activity (average amount of released β-naphthylamine) (Fusobacterium nucleatum [16]): - (release amount<5 nmol/ml) | hydrolytic activity (average amount of released β-naphthylamine) (B. denticola): ++ (20 ≤release amount<40 nmol/ml) | hydrolytic activity (average amount of released β-naphthylamine) (B. gingivalis [17]): +++ (release amount≥40 nmol/ml)

COc1cc(NC(=O)[C@@H]2CCCN2C(=O)[C@@H](N)CCCCN)cc2ccccc12 [KP-4NA, lysyl-proline-4-methoxy-2-naphthylamide]
hydrolytic activity ([11]; Adult Periodontitis subjects): 35.5 ± 10.1 nmol/mL | hydrolytic activity ([11]; Healthy subjects): 16.0 ± 10.8 nmol/mL | hydrolytic activity [11, 18]: 32.3 ± 8.9 nmol/mL

NCCCC[C@H](N)C(=O)N1CCC[C@H]1C(=O)Nc1ccc([N+](=O)[O-])cc1 [KP-pNA, lysylproline-p-nitroanilide] (H-Lys-Pro-pNA)
hydrolytic activity ([11]; Adult Periodontitis subjects): 34.3 ± 9.8 nmol/mL | hydrolytic activity ([11]; Healthy subjects): 15.0 ± 9.4 nmol/mL | hydrolytic activity [11, 18]: 31.5 ± 9.7 nmol/mL
